The results in this text go back to patent US20080085917A1, “7-(2-(4-(3-TRIFLUOROMETHYL-PHENYL)-1,2,3,6-TETRAHYDROPYRID-1-YL)ETHYL)ISOQUINOLINE BESYLATE SALT, PREPARATION AND THERAPEUTIC USE THEREOF” (sanofi-aventis, priority 2005, published 2008).

Type in all cases: physicochemical
Data set [1] is described as follows: Chemical stability of salts exposed to heat and moisture, measured by HPLC. To be noted: for Purity after 14 days at 80° C./80% RH: 14 days at 80° C. and 80% relative humidity; for Initial purity: before exposure (baseline of stability study). The protocol:
The chemical stability of the compound of formula (I) in the dihydrochloride, dihydrogensulfate, fumarate, dibenzenesulfonate and monobenzenesulfonate forms was studied.
Each of the five above salts is exposed to heat, to moisture and to light under the conditions below: • 14 days at a temperature of 80° C., • 14 days at a temperature of 80° C. and a relative humidity (RH) level of 80%, • exposure to light of 400 W.Hrs.m^−2.

Data set [2] can be described thus: Water content by thermogravimetric analysis (TGA). To be noted: for Loss in weight / Nature of the solvent: TGA; for Loss in weight: from 25° C., 10° C./min, nitrogen purge; for Nature of the solvent: solvent lost; for Hydration state: from TGA curve. The protocol: The water content of the five above salts was studied by thermogravimetric analysis (TGA).
The TGA tests are carried out in a TA8000 device equipped with a TGA850 module. The temperature calibrations are carried out conventionally using the melting of indium.
The experimental parameters employed were:
Final temperature: 250° C. for the dihydrochloride, 300° C. for the fumarate, 200° C. or 250° C. for the dihydrogensulfate, 250° C. or 300° C. for the dibesylate and the besylate.
The system is purged using nitrogen at a flow rate of 70 ml/min.
The pans used were 70 μl silica pans.

The nature of data set [3]: Water sorption isotherms (DVS). To be noted: 25° C. The protocol:
The DVS tests are carried out using a DVS-1 system. From 20 to 32 mg of product are used per analysis and the temperature is maintained at 25° C. plus or minus 0.2° C. Nitrogen is used as carrier gas at a flow rate of 100 ml/min in the sample chamber.

For the molecule `FC(F)(F)c1cccc(C2=CCN(CCc3ccc4ccncc4c3)CC2)c1.O=S(=O)(O)c1ccccc1` [Besylate, 7-(2-(4-(3-(trifluoromethyl)phenyl)-1,2,3,6-tetrahydropyrid-1-yl)ethyl)isoquinoline besylate], in data set [1], the “Purity after 14 days at 80° C.” value is 97.9%, the “Purity after 14 days at 80° C./80% RH” value was found to be 96.5% and the Initial purity came to 98.2%. In data set [2], the Loss in weight was determined as 0.11 % weight/weight, the “Nature of the solvent” value is on record as “Water” and the Hydration state result is recorded as “not hydrated”. Also, in data set [3], the “Hygroscopicity (sorption isotherms), in words” value (from here on “Hygroscopicity”) is “least hygroscopic of all the salts tested” and the Hysteresis in sorption/desorption result is on record as “No hysteresis”.

On to `FC(F)(F)c1cccc(C2=CCN(CCc3ccc4ccncc4c3)CC2)c1.O=S(=O)(O)c1ccccc1.O=S(=O)(O)c1ccccc1` [Dibesylate], for which, in data set [1], the “Purity after 14 days at 80° C.” value is on record as 97.5%, the “Purity after 14 days at 80° C./80% RH” value is given as 96.2% and the Initial purity was 97.5%. Besides, in data set [2], the Loss in weight is recorded as 0.72 % weight/weight and the “Nature of the solvent” value is “Water”. Besides, in data set [3], the “Hygroscopicity” value is “significant acquisition of water” and the Hysteresis in sorption/desorption entry is “hystereses observed during the desorption”.

`Cl.Cl.FC(F)(F)c1cccc(C2=CCN(CCc3ccc4ccncc4c3)CC2)c1` [Dihydrochloride]: in data set [1], the “Purity after 14 days at 80° C.” value is reported as 95.6%, the “Purity after 14 days at 80° C./80% RH” value came to 92.9% and the Initial purity amounted to 97.0%. In addition, in data set [2], the Loss in weight was 11.0 % weight/weight, the “Nature of the solvent” value is on record as “Water” and the Hydration state entry is “three water molecules per mole of anhydrous salt”. The Hysteresis in sorption/desorption result in data set [3] is reported as “weak hysteresis”. For the same molecule, the “Water acquired during the sorption cycle” value in data set [3] (between 30 and 80% relative humidity) came out at 1.9 % weight/weight.

In the case of `FC(F)(F)c1cccc(C2=CCN(CCc3ccc4ccncc4c3)CC2)c1.O=S(=O)(O)O.O=S(=O)(O)O` [Dihydrogensulfate], in data set [1], the “Purity after 14 days at 80° C.” value turned out to be 91.9%, the “Purity after 14 days at 80° C./80% RH” value stood at 88.5% and the Initial purity amounted to 93.3%. In data set [2], the Loss in weight was determined as 2.06 % weight/weight and the “Nature of the solvent” value was “Solvent + water”. Further, in data set [3], the “Hygroscopicity” value is recorded as “significant acquisition of water” and the Hysteresis in sorption/desorption result was “hystereses observed during the desorption”.

With Fumarate, in data set [1], the “Purity after 14 days at 80° C.” value is given as 96.7%, the “Purity after 14 days at 80° C./80% RH” value was 32.4% and the Initial purity was found to be 97.9%. Moreover, in data set [2], the Loss in weight is on record as 0.45 % weight/weight and the “Nature of the solvent” value is reported as “Solvent + water”. For the same molecule, the “Hygroscopicity” value in data set [3] is on record as “weakly hygroscopic”.
